Data: US7592350B2, “Polycyclic compounds as potent alpha2-adrenoceptor antagonists” (Orion Corporation, priority 2002, dated 2009)

Experiments:
alpha2A-adrenoceptor [1] = molecular target: T1, alpha2A-adrenoceptor (Homo sapiens, UniProt P08913); assay: Radioligand binding to alpha2-adrenoceptors (alpha2A); conditions: calculated Ki from radioligand binding assays; read-out: Binding affinity (Ki) alpha2A
T1 sequence (P08913 1-465): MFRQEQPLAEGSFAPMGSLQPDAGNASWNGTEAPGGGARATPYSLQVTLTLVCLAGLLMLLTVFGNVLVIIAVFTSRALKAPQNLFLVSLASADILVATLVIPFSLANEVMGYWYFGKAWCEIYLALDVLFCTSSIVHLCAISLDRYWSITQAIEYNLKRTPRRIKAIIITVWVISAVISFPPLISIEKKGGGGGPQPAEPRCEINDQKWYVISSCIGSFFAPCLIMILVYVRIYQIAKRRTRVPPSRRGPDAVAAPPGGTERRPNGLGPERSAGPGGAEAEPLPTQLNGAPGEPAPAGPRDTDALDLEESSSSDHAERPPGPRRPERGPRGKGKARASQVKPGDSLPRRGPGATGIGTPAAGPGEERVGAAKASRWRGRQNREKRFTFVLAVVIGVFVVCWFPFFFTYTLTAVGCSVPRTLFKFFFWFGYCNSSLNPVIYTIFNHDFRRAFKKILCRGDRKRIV

alpha2B-adrenoceptor [2] = molecular target: T2, alpha2B-adrenoceptor (Homo sapiens, UniProt P18089); assay: Radioligand binding to alpha2-adrenoceptors (alpha2B); conditions: calculated Ki from radioligand binding assays; read-out: Binding affinity (Ki) alpha2B
T2 sequence (P18089 1-450): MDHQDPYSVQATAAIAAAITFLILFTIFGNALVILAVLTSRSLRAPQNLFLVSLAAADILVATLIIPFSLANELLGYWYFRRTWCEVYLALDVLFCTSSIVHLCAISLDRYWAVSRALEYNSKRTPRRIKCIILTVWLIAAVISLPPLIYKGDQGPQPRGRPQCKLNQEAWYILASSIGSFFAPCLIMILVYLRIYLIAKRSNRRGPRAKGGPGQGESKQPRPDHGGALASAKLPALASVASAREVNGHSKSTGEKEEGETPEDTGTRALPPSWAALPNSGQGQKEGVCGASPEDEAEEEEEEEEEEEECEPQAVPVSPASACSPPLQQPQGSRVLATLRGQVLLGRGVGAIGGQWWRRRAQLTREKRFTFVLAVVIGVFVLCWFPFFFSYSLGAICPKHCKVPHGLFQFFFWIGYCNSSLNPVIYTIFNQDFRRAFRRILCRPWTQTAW
Text: Examples of the alpha2-adrenoceptor binding affinities of the compounds including in the present invention are shown in the Table 1. Many of these compouinds are high-affinity ligands for all the alpha2-receptors, but some of them display selectivity for the alpha2C-subtype.

alpha2C-adrenoceptor [3] = molecular target: T3, alpha2C-adrenoceptor (Homo sapiens, UniProt P18825); assay: Radioligand binding to alpha2-adrenoceptors (alpha2C); conditions: calculated Ki from radioligand binding assays; read-out: Binding affinity (Ki) alpha2C
T3 sequence (P18825 1-462): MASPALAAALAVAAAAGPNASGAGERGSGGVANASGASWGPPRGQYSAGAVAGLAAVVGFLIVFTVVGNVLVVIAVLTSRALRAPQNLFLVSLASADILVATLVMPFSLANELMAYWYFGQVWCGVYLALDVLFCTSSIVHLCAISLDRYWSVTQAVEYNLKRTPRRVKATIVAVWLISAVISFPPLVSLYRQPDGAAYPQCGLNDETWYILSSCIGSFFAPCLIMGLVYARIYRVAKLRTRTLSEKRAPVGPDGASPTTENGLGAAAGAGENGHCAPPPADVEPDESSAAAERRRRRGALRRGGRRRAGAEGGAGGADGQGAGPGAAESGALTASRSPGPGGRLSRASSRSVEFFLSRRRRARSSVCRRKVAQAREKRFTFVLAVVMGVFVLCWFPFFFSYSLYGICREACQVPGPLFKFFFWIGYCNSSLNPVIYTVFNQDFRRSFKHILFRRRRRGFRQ

mice = assay: Antagonism of alpha2-agonist (dexmedetomidine)-induced sedation; format: in vivo; conditions: dexmedetomidine 50 nmol/kg s.c., antagonist pre-treatment
Method: (veh=vehicle). (***p<0.001, compared to Dex+vehicle)
One of the prominent effects of non-selective alpha2-agonists in rodents is their ability to cause profound sedation. This effect, measured as locomotor inhibition by the alpha2-agonist dexmedetomidine was not modified in mice with genetically altered alpha2C-expression (Scheinin, M. et al., Life Sci 68(19-20) (2001) 2277-85). […] This assumption was tested in experiment, where dexmedetomidine was administered to mice pre-treated with the alpha2C-antagonists compound K or compound L, or the subtype non-selective antagonist atipamezole (Haapalinna, A. et al., Naunyn-Schmiedeberg's Arch. Pharmacol. 356 (1997) 570-582).

rats = assay: Forced swimming test; format: in vivo; conditions: 3 micromol/kg, compared to vehicle
Method: Forced swimming test (FST, i.e. Porsolt's test) is generally used in the pharmacological screening of new-antidepressants. In this test, antidepressants increase the animals' activity compared to non-treated controls. […] Therefore, it was tested, whether a selective alfa2C-antagonist would have antidepressant-like activity (e.g. activity-increasing property) in the FST. […] Also the positive control substances desipramine and fluoxetine (clinically effective antidepressant agents) were active.

alpha2A-adrenoceptor [4] = molecular target: T1, alpha2A-adrenoceptor; assay: Inhibition of epinephrine-stimulated 35S-GTPγS binding, CHO cell membranes (alpha2A); format: biochemical; set-up: expressed in transfected cells; host or cells: CHO cells (membranes); conditions: mean, read-out: Antagonist potency (KB) alpha2A
Method: (§1) The functional activities of two compounds (K and L) displaying alpha2C-selectivity in binding experiments were determined as the abilities of the compounds to inhibit the epinephrine-stimulated binding of ^35S-GTPγS to G proteins (Jasper, J. R. et al., Biochem. Pharmacol. 55(7) (1998) 103544) in membranes of CHO cells stably transfected with the human alpha2-adrenoceptor subtypes.

alpha2B-adrenoceptor [5] = molecular target: T2, alpha2B-adrenoceptor; assay: Inhibition of epinephrine-stimulated 35S-GTPγS binding, CHO cell membranes (alpha2B); format: biochemical; set-up: expressed in transfected cells; host or cells: CHO cells (membranes); conditions: mean, read-out: Antagonist potency (KB) alpha2B
Method: as §1

alpha2C-adrenoceptor [6] = molecular target: T3, alpha2C-adrenoceptor; assay: Inhibition of epinephrine-stimulated 35S-GTPγS binding, CHO cell membranes (alpha2C); format: biochemical; set-up: expressed in transfected cells; host or cells: CHO cells (membranes); conditions: mean, read-out: Antagonist potency (KB) alpha2C
Method: as §1

Structure (SMILES): CCC1(O)CCCN2CCc3c([nH]c4ccccc34)C21 (stereo not drawn) [Compound K, 1α-Ethyl-1,2,3,4,6,7,12,12bβ-octahydroindolo[2,3-]quinolizin-1-ol]
- Ki (alpha2A-adrenoceptor [1]): 359 nM
- Ki (alpha2B-adrenoceptor [2]): 245 nM
- Ki (alpha2C-adrenoceptor [3]): 31 nM
- Antagonism of dexmedetomidine-induced sedation (locomotor inhibition) (mice): did not have clear effects
- Activity in the forced swimming test (rats): increased activity
- Kb (alpha2A-adrenoceptor [4]): 295 nM
- Kb (alpha2B-adrenoceptor [5]): 351 nM
- Kb (alpha2C-adrenoceptor [6]): 23 nM
